According to patent US20220289794A1, “SYNTHETIC ANTIMICROBIAL PEPTIDES” (priority 2019, published 2022):
Converted amounts (≈) assume the structure as drawn. Read-outs that look alike come from different tables or passages of the source. Non-standard residues stand in square brackets, D forms with d. Residues, ends and D or L forms follow the SMILES beside them. Bip = N[C@@H](Cc1ccc(-c2ccccc2)cc1)C(=O)O; Dip = N[C@H](C(=O)O)C(c1ccccc1)c1ccccc1; 2Nal = N[C@@H](Cc1ccc2ccccc2c1)C(=O)O

How the values were obtained:
[1] = test system: S. aureus ATCC 29213
[2] = test system: Escherichia coli (ATCC 25922)
[3] = test system: Methicillin-resistant Staphylococcus aureus MRSA (ATCC BAA-1556)
[4] = test system: Pseudomonas aeruginosa (ATCC 27883)
[5] = test system: human red blood cells; design: unit not given beside the values

MIC S. aureus ATCC 29213 ([1]; ATCC 29213) [µg/mL]	MIC E. coli ATCC 25922 ([2]; ATCC 25922) [µg/mL]	MIC MRSA ATCC BAA-1556 ([3]; ATCC BAA-1556) [µg/mL]	MIC P. aeruginosa ATCC 27883 ([4]; ATCC 27883) [µg/mL]	Compound	MIC S. aureus ATCC 29213 [1] [µg/mL]	MIC E. coli ATCC 25922 [2] [µg/mL]	MIC MRSA ATCC BAA-1556 [3] [µg/mL]	MIC P. aeruginosa ATCC 27883 [4] [µg/mL]	further results
>100	>100	>100	>100	N=C(N)NCCC[C@H](NC(=O)[C@H](CCCNC(=N)N)NC(=O)[C@H](CCCNC(=N)N)NC(=O)[C@@H](N)CCCNC(=N)N)C(=O)N[C@@H](Cc1ccc(-c2ccccc2)cc1)C(=O)N[C@@H](Cc1ccc(-c2ccccc2)cc1)C(=O)N[C@@H](Cc1ccc(-c2ccccc2)cc1)C(=O)N[C@@H](Cc1ccc(-c2ccccc2)cc1)C(=O)O [IFX-004-1, NH2-Arg-Arg-Arg-Arg-Bip-Bip-Bip-Bip-OH] (H-RRRR[Bip][Bip][Bip][Bip]-OH)	–	–	–	–	–
25 (≈ 15.6 µM)	50 (≈ 31.3 µM)	25 (≈ 15.6 µM)	50 (≈ 31.3 µM)	N=C(N)NCCC[C@@H]1NC(=O)CNC(=O)CNC(=O)[C@H](Cc2c[nH]c3ccccc23)NC(=O)[C@H](Cc2c[nH]c3ccccc23)NC(=O)[C@H](Cc2c[nH]c3ccccc23)NC(=O)[C@H](Cc2c[nH]c3ccccc23)NC(=O)CNC(=O)CNC(=O)[C@H](CCCNC(=N)N)NC(=O)[C@H](CCCNC(=N)N)NC(=O)[C@H](CCCNC(=N)N)NC1=O [IFX-044] (cyclo(GGRRRRGGWWWW))	–	–	–	–	–
–	–	–	–	c[PEG4-Arg-arg-Arg-arg-Trp-naI-naI] [IFX-053]	16	64	16	128	–
6.2 (≈ 4.72 µM)	>100	6.2 (≈ 4.72 µM)	25 (≈ 19 µM)	N=C(N)NCCC[C@H](NC(=O)[C@H](CCCNC(=N)N)NC(=O)[C@H](CCCNC(=N)N)NC(=O)[C@@H](N)CCCNC(=N)N)C(=O)N[C@@H](Cc1ccc(-c2ccccc2)cc1)C(=O)N[C@@H](Cc1ccc(-c2ccccc2)cc1)C(=O)N[C@@H](Cc1ccc(-c2ccccc2)cc1)C(=O)O [IFX-007-1, NH2-Arg-Arg-Arg-Arg-Bip-Bip-Bip-OH] (H-RRRR[Bip][Bip][Bip]-OH)	–	–	–	–	–
50 (≈ 32.9 µM)	>100	>100	>100	N=C(N)NCCC[C@@H]1NC(=O)[C@H](CCCNC(=N)N)NC(=O)[C@H](CCCNC(=N)N)NC(=O)[C@H](Cc2ccc(-c3ccccc3)cc2)NC(=O)[C@H](Cc2ccc(-c3ccccc3)cc2)NC(=O)[C@H](Cc2ccc(-c3ccccc3)cc2)NC(=O)[C@H](Cc2ccc(-c3ccccc3)cc2)NC(=O)[C@H](CCCNC(=N)N)NC1=O [IFX-004, c[Arg-Arg-Arg-Arg-Bip-Bip-Bip-Bip]] (cyclo([Bip][Bip][Bip][Bip]RRRR))	–	–	–	–	–
–	–	–	–	c[PEG1-Arg-Arg-Arg-Arg-PEG1-Trp-Trp-Trp-Trp] [IFX-046]	25	50	25	50	–
–	–	–	–	N=C(N)NCCC[C@@H]1NC(=O)[C@H](CCCNC(=N)N)NC(=O)[C@H](CCCNC(=N)N)NC(=O)[C@H](Cc2ccc3ccccc3c2)NC(=O)[C@H](Cc2ccc3ccccc3c2)NC(=O)[C@H](Cc2c[nH]c3ccccc23)NC(=O)[C@H](CCCNC(=N)N)NC1=O [IFX-029, c[Arg-Arg-Arg-Arg-Trp-NaI-NaI]] (cyclo(RRRRW[2Nal][2Nal]))	–	–	–	–	HC50 [5]: 200
–	–	–	–	c[PEG2-Arg-Arg-Arg-Arg-Arg-PEG2-Dip-Dip-Dip] [IFX-050-2]	16	64	16	128	–
–	–	–	–	c[PEG1-Arg-Arg-Arg-Arg-PEG1-Dip-Dip-Dip] [IFX-048]	16	64	16	64	–
–	–	–	–	c[Arg-arg-PEG4-Arg-arg-Trp-naI-naI] [IFX-052]	32	64	32	128	–
–	–	–	–	N=C(N)NCCC[C@@H]1NC(=O)[C@H](CCCNC(=N)N)NC(=O)[C@H](CCCNC(=N)N)NC(=O)[C@H](Cc2ccc3ccccc3c2)NC(=O)[C@H](Cc2c[nH]c3ccccc23)NC(=O)[C@H](Cc2ccc3ccccc3c2)NC(=O)[C@H](CCCNC(=N)N)NC1=O [IFX-030, c[Arg-Arg-Arg-Arg-NaI-Trp-NaI]] (cyclo(RRRR[2Nal]W[2Nal]))	–	–	–	–	HC50 [5]: 430
–	–	–	–	N=C(N)NCCC[C@@H]1NC(=O)[C@H](CCCNC(=N)N)NC(=O)[C@H](Cc2c[nH]c3ccccc23)NC(=O)[C@H](C(c2ccccc2)c2ccccc2)NC(=O)[C@H](C(c2ccccc2)c2ccccc2)NC(=O)[C@H](CCCNC(=N)N)NC(=O)[C@H](CCCNC(=N)N)NC1=O [IFX-028, c[Arg-Arg-Arg-Arg-Dip-Dip-Trp]] (cyclo([Dip][Dip]WRRRR))	–	–	–	–	HC50 [5]: 370
–	–	–	–	c[PEG2-Arg-Arg-Arg-Arg-PEG2-Trp-Trp-Trp-Trp] [IFX-047]	50	100	50	50	–
–	–	–	–	c[PEG2-Arg-Arg-Arg-Arg-PEG2-Dip-Dip-Dip] [IFX-049]	8	128	8	64	–
50 (≈ 43.2 µM)	>100	50 (≈ 43.2 µM)	>100	N=C(N)NCCC[C@H](NC(=O)[C@H](CCCNC(=N)N)NC(=O)[C@@H](N)CCCNC(=N)N)C(=O)N[C@@H](Cc1ccc(-c2ccccc2)cc1)C(=O)N[C@@H](Cc1ccc(-c2ccccc2)cc1)C(=O)N[C@@H](Cc1ccc(-c2ccccc2)cc1)C(=O)O [IFX-001-1, NH2-Arg-Arg-Arg-Bip-Bip-Bip-OH] (H-RRR[Bip][Bip][Bip]-OH)	–	–	–	–	–
3.1 (≈ 2.11 µM)	25 (≈ 17 µM)	3.1 (≈ 2.11 µM)	50 (≈ 34 µM)	N=C(N)NCCC[C@H](NC(=O)[C@H](CCCNC(=N)N)NC(=O)[C@H](CCCNC(=N)N)NC(=O)[C@@H](N)CCCNC(=N)N)C(=O)N[C@@H](CCCNC(=N)N)C(=O)N[C@H](C(=O)N[C@H](C(=O)N[C@H](C(=O)O)C(c1ccccc1)c1ccccc1)C(c1ccccc1)c1ccccc1)C(c1ccccc1)c1ccccc1 [IFX-012-1, NH2-Arg-Arg-Arg-Arg-Arg-Dip-Dip-Dip-OH] (H-RRRRR[Dip][Dip][Dip]-OH)	–	–	–	–	–
–	–	–	–	c[PEG1-Arg-Arg-Arg-Arg-Arg-PEG1-Dip-Dip-Dip] [IFX-050-1]	16	32	32	128	–
–	–	–	–	N=C(N)NCCC[C@@H]1NC(=O)[C@H](CCCNC(=N)N)NC(=O)[C@H](Cc2c[nH]c3ccccc23)NC(=O)[C@H](Cc2c[nH]c3ccccc23)NC(=O)[C@H](Cc2c[nH]c3ccccc23)NC(=O)[C@H](Cc2c[nH]c3ccccc23)NC(=O)[C@H](Cc2c[nH]c3ccccc23)NC(=O)[C@H](Cc2c[nH]c3ccccc23)NC(=O)[C@H](Cc2c[nH]c3ccccc23)NC(=O)[C@H](CCCNC(=N)N)NC1=O [IFX-306] (cyclo(RRRWWWWWWW))	–	–	–	–	MIC P. aeruginosa ATCC 27883 ([4]; Table 19): 256 µg/mL (≈ 144 µM)
–	–	–	–	c[Arg-Arg-Arg-Arg-5brW-5brW-5brW-5brW] [IFX-039]	25	>100	25	>100	–
–	–	–	–	c[Arg-Arg-Arg-Arg-5fW-5fW-5fW-5fW] [IFX-038]	12.5	50	25	100	–
50 (≈ 43.9 µM)	>100	50 (≈ 43.9 µM)	>100	N=C(N)NCCC[C@@H]1NC(=O)[C@H](CCCNC(=N)N)NC(=O)[C@H](Cc2ccc(-c3ccccc3)cc2)NC(=O)[C@H](Cc2ccc(-c3ccccc3)cc2)NC(=O)[C@H](Cc2ccc(-c3ccccc3)cc2)NC(=O)[C@H](CCCNC(=N)N)NC1=O [IFX-001, c[Arg-Arg-Arg-Bip-Bip-Bip]] (cyclo([Bip][Bip][Bip]RRR))	–	–	–	–	–
–	–	–	–	c[Arg-arg-Arg-arg-PEG4-Trp-naI-naI] [IFX-051]	32	128	32	128	–
–	–	–	–	c[Arg-Arg-Arg-Arg-1meW-1meW-1meW-1meW] [IFX-041]	3.1	25	6.2	25	–
–	–	–	–	c[Arg-Arg-Arg-Arg-7metW-7metW-7metW-7metW] [IFX-042]	6.1	25	6.2	50	–
–	16 (≈ 11.7 µM)	–	–	N=C(N)NCCC[C@H]1NC(=O)[C@H](Cc2c[nH]c3ccccc23)NC(=O)[C@H](Cc2c[nH]c3ccccc23)NC(=O)[C@H](Cc2c[nH]c3ccccc23)NC(=O)[C@H](Cc2c[nH]c3ccccc23)NC(=O)[C@@H](CCCNC(=N)N)NC(=O)[C@@H](CCCNC(=N)N)NC(=O)[C@@H](CCCNC(=N)N)NC1=O [IFX-309] (cyclo([dR][dR][dR][dR]WWWW))	–	–	–	–	–
3.1 (≈ 2.39 µM)	>100	6.2 (≈ 4.79 µM)	25 (≈ 19.3 µM)	N=C(N)NCCC[C@@H]1NC(=O)[C@H](CCCNC(=N)N)NC(=O)[C@H](CCCNC(=N)N)NC(=O)[C@H](Cc2ccc(-c3ccccc3)cc2)NC(=O)[C@H](Cc2ccc(-c3ccccc3)cc2)NC(=O)[C@H](Cc2ccc(-c3ccccc3)cc2)NC(=O)[C@H](CCCNC(=N)N)NC1=O [IFX-007, c[Arg-Arg-Arg-Arg-Bip-Bip-Bip]] (cyclo([Bip][Bip][Bip]RRRR))	–	–	–	–	–
